From patent US20140308357A1, “MELATONIN-BASED SOLUTIONS AND POWDERS FOR THEIR PREPARATION” (Eratech S.R.L., priority 2011, published 2014)
Converted amounts (≈) assume the structure as drawn.

Key:
[1] = Solubility of the powder for reconstitution (saturated solution, filtered, HPLC); assay type: physicochemical; conditions: thermodynamic from solid
Experimental: Following the preparation of a saturate solution of the powders obtained, the same solution was filtered with a […] membrane and the filtered solution obtained was analysed by HPLC according to the method described previously.

[2] = Dissolution speed of the powder for reconstitution in water/PEG-400 (80/20); assay type: physicochemical; conditions: 25° C.
Experimental: The entire test was conducted in temperature conditions of 25° C.
After 1 minute of manual stirring the two solutions were left to settle for 1 minute.
After 1 minute of sedimentation, the supernatant solution was sampled by taking 1 ml of it and analysing it according to the HPLC method described previously.

[3] = Osmolality and pH of solutions for administration in Water/PEG 400; assay type: physicochemical
[4] = cited from earlier work
[5] = Water/PEG 400 ratio 70/30, melatonin 18 mg/ml
[6] = Water/PEG 400 ratio 75/25, melatonin 14 mg/ml
[7] = Water/PEG 400 ratio 80/20, melatonin 10 mg/ml
[8] = Water/PEG 400 ratio 85/15, melatonin 7 mg/ml
[9] = Water/PEG 400 ratio 90/10, melatonin 5 mg/ml

COc1ccc2[nH]cc(CCNC(C)=O)c2c1 [Melatonin raw material, Melatonin] gave a solubility ([1]; purified water, water, Water (Table 3a)) of 1.8 mg/mL (≈ 7.75 mM), a solubility ([1]; purified water, water, Water (Table 3b)) of 1.7 mg/mL (≈ 7.32 mM) and a solubility ([1]; water/PEG-200 (75/25), aqueous with cosolvent or surfactant or cyclodextrin, Water-PEG 75/25, PEG 200) of 10.5 mg/mL (≈ 45.2 mM). The solubility ([1]; water/PEG-350 (75/25), aqueous with cosolvent or surfactant or cyclodextrin, Water-PEG 75/25, PEG 350) was 16.9 mg/mL (≈ 72.8 mM), the solubility ([1]; water/PEG-400 (75/25), aqueous with cosolvent or surfactant or cyclodextrin, Water-PEG 75/25, PEG 400) was 14.5 mg/mL (≈ 62.4 mM) and the solubility ([1]; water/PEG-400 (80/20), aqueous with cosolvent or surfactant or cyclodextrin, Water-PEG-400 ratio 80-20) was 11.1 mg/mL. The solubility ([1]; water/PEG-400 (90/10), aqueous with cosolvent or surfactant or cyclodextrin, Water-PEG-400 ratio 90-10) was 5 mg/mL, the solubility ([1]; water/ethanol (70/30), aqueous with cosolvent or surfactant or cyclodextrin, Water-Ethanol ratio 70-30) was 19.7 mg/mL and the solubility ([1]; water/ethanol (75/25), aqueous with cosolvent or surfactant or cyclodextrin, Water-Ethanol ratio 75-25) was 14.2 mg/mL. For the same compound, the solubility ([1]; water/ethanol (80/20), aqueous with cosolvent or surfactant or cyclodextrin, Water-Ethanol ratio 80-20) was 8.2 mg/mL, the solubility ([1]; water/ethanol (90/10), aqueous with cosolvent or surfactant or cyclodextrin, Water-Ethanol ratio 90-10) was 3.7 mg/mL and the “Visual inspection of the preparation” value ([2]; 30 mg melatonin in 3 ml water/PEG-400 (80/20), 1 minute manual stirring, after 1 minute settling) was “presence of undissolved particulate”. For the same compound, the “Concentration of melatonin in the supernatant solution” value ([2]; 30 mg melatonin in 3 ml water/PEG-400 (80/20), 1 minute stirring and 1 minute sedimentation) was 7100 µg/mL, the “Concentration of melatonin in solution” value ([2]; water/PEG-400 (80/20), after 10 minutes of stirring) was 7900 µg/mL and the Osmolality [3, 5] was 1310 mOsm/Kg. It also gave a pH [3, 5] of 5.2, an Osmolality [3, 6] of 1014 mOsm/Kg and a pH [3, 6] of 5.2. For the same compound, the Osmolality [3, 7] was 754 mOsm/Kg, the pH [3, 7] was 5.2 and the Osmolality [3, 8] was 530 mOsm/Kg. For the same compound, the pH [3, 8] was 5.2, the Osmolality [3, 9] was 335 mOsm/Kg and the pH [3, 9] was 5.2. The “Concentration of melatonin in plasma” value ([4]; endogenous, circulates bound to albumin) was 0.01 to 0.3 ng/mL, the Bioavailability ([4]; in vivo) was “approximately 15%” and the “Clearance following first passage through the liver” value ([4]; in vivo) was 90%. The Half-life ([4]; in vivo) was 30 to 60 min.
